According to patent US9249111B2, “Substituted quinoxalines as B-RAF kinase inhibitors” (NEUPHARMA, INC., priority 2011, dated 2016):
pIC50: −log10 of the molar value.

Key:
BRAF V600E = target: T1, BRAF V600E (Homo sapiens, UniProt P15056, V600E); assay: Z'-LYTE kinase inhibition assay (Invitrogen), BRAF V600E; type: biochemical; details: Z'-LYTE method; for inhibition at 1 µM: compound at 1 μM
T1 construct: purchased Invitrogen
Method: (§1) Inhibitory activities of compounds against BRAF or BRAF V600E were measured by Invitrogen using Z′-LYTE® Method as briefly described in the following.
(§2) 4× Test compounds were dissolved in 1% DMSO. […] ATP solutions were diluted to a 4×ATP working concentration in Kinase Buffer (50 mM HEPES pH 7.5, 0.01% BRIJ-35, 10 mM MgCl2, 1 mM EGTA). Reaction started by 30-second shaking of mixture consisting of 2.5 μL4× test compound, 2.5 μL 2× kinase reaction mixture and 2.5 μL 4×ATP Solution on Bar-coded Corning, low volume NBS, black 384-well plate (Corning Cat. #3676). Then the mixture was incubated for 60-minute at room temperature for the kinase reaction, followed by addition of 5 μL of a 1:1024 dilution of development reagent A and 30-second plate shake. The mixture was then incubated for another 60-minute at room temperature for development reaction. Finally fluorescence was read by plate reader. IC50 was calculated by plotting the concentration of compound vs the percentage of inhibition in treated wells using GraphPad Prism 5.

A375 cells = assay: MTT cell growth inhibition assay, A375 cells; type: cell-based; details: Homo sapiens, A-375, 72 h compound exposure
Method: (§3) Inhibition of cell growth by compounds was measured using MTT assay (Mosmann, T., Journal of Immunological Methods, 1983, 65, 55-63). Tumor cell lines were purchased from ATCC (American Type Culture Collection, Manassas, Va.). All cell lines were maintained in RPMI 1640 (Hyclone) supplemented with 10% fetal bovine serum (FBS, Hyclone), glutamine (2 mM, Hyclone), and antibiotics (penicillin 100 U/mL and streptomycin 50 μg/mL) at 37° C. in a humidified atmosphere of 5% CO2 in air. Taxol (as a positive control, Sigma) and compounds were dissolved in DMSO (Sigma), and the final concentration of DMSO in the medium was 1%. Tumor cells were plated in 96-well plates at densities of about 4000 cells/well of a 96-well plate and allowed to adhere/grow for 24 h. They were then treated with various concentrations of drug for 72 h. 3-(4,5-Dimethylthiazol-2-yl)-2,5-diphenyltetrazolium bromide (MTT, Sigma) was used to determine the number of viable cells at the time of compound addition and the number of cells remaining after 72 h compound exposure. The number of cells remaining after 72 h was compared to the number of viable cells at the time of compound addition by measuring the absorbance at 570 nm, allowing for the calculation of growth inhibition.
(§4) All concentrations of compounds were tested in triplicate and controls were averaged over 4 wells. IC50 was calculated by plotting the concentration of compound vs the percentage of inhibition in treated wells using GraphPad Prism 5. […] The scale utilized in Table 2 is as follows: […], ++ between 1000 and 5000 nM, and + greater than 5000 nM.

A549 cells = assay: MTT cell growth inhibition assay, A549 cells; type: cell-based; details: Homo sapiens, 72 h compound exposure
Method: as §3, §4

BRAF = target: T2, BRAF (Homo sapiens, UniProt P15056); assay: Z'-LYTE kinase inhibition assay (Invitrogen), BRAF; type: biochemical; details: compound at 1 μM; Z'-LYTE method
T2 construct: purchased Invitrogen
Method: as §1, §2

T1 sequence (P15056 whole entry V600E): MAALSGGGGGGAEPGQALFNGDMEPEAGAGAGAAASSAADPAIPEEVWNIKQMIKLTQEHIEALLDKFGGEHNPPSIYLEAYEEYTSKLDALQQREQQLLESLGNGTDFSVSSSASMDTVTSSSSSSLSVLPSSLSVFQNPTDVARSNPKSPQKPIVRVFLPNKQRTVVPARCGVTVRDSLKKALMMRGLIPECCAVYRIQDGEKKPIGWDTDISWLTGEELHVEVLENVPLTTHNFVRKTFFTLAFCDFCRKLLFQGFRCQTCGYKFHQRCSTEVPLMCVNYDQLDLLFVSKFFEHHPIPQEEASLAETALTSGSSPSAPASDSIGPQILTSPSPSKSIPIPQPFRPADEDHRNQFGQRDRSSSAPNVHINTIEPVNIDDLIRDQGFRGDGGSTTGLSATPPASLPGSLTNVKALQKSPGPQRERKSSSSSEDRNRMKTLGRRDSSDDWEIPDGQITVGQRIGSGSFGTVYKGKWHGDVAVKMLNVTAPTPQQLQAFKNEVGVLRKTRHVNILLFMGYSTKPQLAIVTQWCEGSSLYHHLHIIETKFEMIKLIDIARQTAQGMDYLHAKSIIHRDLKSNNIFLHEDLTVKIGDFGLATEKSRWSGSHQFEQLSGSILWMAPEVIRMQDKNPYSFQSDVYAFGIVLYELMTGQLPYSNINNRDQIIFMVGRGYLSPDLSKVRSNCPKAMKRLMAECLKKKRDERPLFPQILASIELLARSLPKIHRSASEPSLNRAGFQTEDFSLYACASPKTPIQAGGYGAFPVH
T2 sequence (P15056 whole entry): as the sequence (P15056 whole entry V600E) above, with E600V counted along it

| SMILES | inhibition at 1 µM (BRAF V600E) [%] | pIC50 (A375 cells) | pIC50 (A549 cells) | inhibition at 1 µM (BRAF) [%] | pIC50 (BRAF V600E; read-out: IC50 against BRAF V600E) |
| --- | --- | --- | --- | --- | --- |
| O=C(c1ccc2nccnc2c1)c1c(F)ccc(OCc2cccc(F)c2)c1F [Compound C01, (2,6-difluoro-3-((3-fluorobenzyl)oxy)phenyl)(quinoxalin-6-yl)methanone] | 30 to 89 | < 5.30 | < 5.30 | 30 to 89 |  |
| O=C(c1ccc2nccnc2c1)c1c(F)ccc(OCc2cccc(Cl)c2)c1F [Compound C02, (3-((3-chlorobenzyl)oxy)-2,6-difluorophenyl)(quinoxalin-6-yl)methanone] | 30 to 89 | < 5.30 | < 5.30 | 30 to 89 |  |
| COc1ccc(F)c(C(=O)c2ccc3nccnc3c2)c1F [Compound C04, (2,6-difluoro-3-methoxyphenyl)(quinoxalin-6-yl)methanone] | 30 to 89 | 5.30 to 6.00 | 5.30 to 6.00 | < 30 |  |
| O=C(c1ccc2nccnc2c1)c1c(F)ccc(OCc2ccccc2)c1F [Compound C06, (3-(benzyloxy)-2,6-difluorophenyl)(quinoxalin-6-yl)methanone] | > 89 | > 6.00 | > 6.00 | 30 to 89 | > 7.30 |

Continued, values first:

| inhibition at 1 µM (BRAF V600E) [%] | pIC50 (A375 cells) | pIC50 (A549 cells) | inhibition at 1 µM (BRAF) [%] | pIC50 (BRAF V600E; read-out: IC50 against BRAF V600E) | SMILES |
| --- | --- | --- | --- | --- | --- |
|  | > 6.00 | 5.30 to 6.00 |  |  | O=C(c1ccc2nccnc2c1)c1c(F)ccc(O)c1F [Compound C03, (2,6-difluoro-3-hydroxyphenyl)(quinoxalin-6-yl)methanone] |
|  | > 6.00 | 5.30 to 6.00 |  |  | O=C(c1ccc2ncc(Cl)nc2c1)c1c(F)ccc(O)c1F [Compound C05, (3-chloroquinoxalin-6-yl)(2,6-difluoro-3-hydroxyphenyl)methanone] |
|  | 5.30 to 6.00 | 5.30 to 6.00 |  |  | O=C(c1ccc2ncc(-c3cccnc3)nc2c1)c1c(F)ccc(O)c1F [Compound C07, (2,6-difluoro-3-hydroxyphenyl)(3-(pyridin-3-yl)quinoxalin-6-yl)methanone] |
|  | > 6.00 | 5.30 to 6.00 |  |  | O=C(c1ccc2ncc(-c3ccccc3)nc2c1)c1c(F)ccc(O)c1F [Compound C08, (2,6-difluoro-3-hydroxyphenyl)(3-phenylquinoxalin-6-yl)methanone] |
|  | 5.30 to 6.00 | 5.30 to 6.00 |  |  | N#Cc1cnc2ccc(C(=O)c3c(F)ccc(O)c3F)cc2n1 [Compound C09, 7-(2,6-difluoro-3-hydroxybenzoyl)quinoxaline-2-carbonitrile] |
|  | 5.30 to 6.00 | 5.30 to 6.00 |  |  | COc1cnc2ccc(C(=O)c3c(F)ccc(O)c3F)cc2n1 [Compound C10, (2,6-difluoro-3-hydroxyphenyl)(3-methoxyquinoxalin-6-yl)methanone] |
